Data: patent publication US20140206017A1, “LYSYL OXIDASE-LIKE 2 ASSAY AND METHODS OF USE THEREOF” (priority 2011, published 2014)
“And” between values parts separate entries of the source, which are not always exact repeats. Identical values can stand only once. Counter-ions that a name gives are not always drawn.

Assays:
[1] = system: liver fibrosis in subjects with chronic hepatitis B (CHB); experiment: Liver biopsy (Ishak fibrosis score) in CHB subjects before and after 240 weeks of TDF; type: in vivo, human; details: for Chance of regression of cirrhosis at week 240: cirrhotic subjects
Experimental: Serum LOXL2 levels were assessed in subjects with chronic hepatitis B (CHB) and liver fibrosis, both before treatment and after 240 weeks of treatment with 300 mg tenofovir disoproxil fumarate (TDF). Liver biopsies were taken from 348 human subjects with CHB, prior to treatment and after 240 weeks of treatment with TDF. The biopsies were scored by pathologists using the Ishak scale for assessment of fibrosis. […] Of the 96 subjects who began the study with biopsy-proven cirrhosis, 74% had regression of cirrhosis after 240 weeks of treatment. […] At week 240 following treatment, 42 of these 81 subjects had cirrhosis regression, 16 had persistent cirrhosis, 2 had progressed to cirrhosis over the course of treatment, 18 were non-cirrhotic subjects with no change in fibrosis, and 3 were non-cirrhotic subjects with at least a 2-point reduction in fibrosis as measured by Ishak.

serum LOXL2 = experiment: Serum LOXL2 by ELISA at baseline and week 240 of TDF treatment in CHB subjects; type: in vivo, human; details: for Median serum LOXL2: LOQ = 440 pg/mL
Description: At week 240 following treatment, 42 of these 81 subjects had cirrhosis regression, 16 had persistent cirrhosis, 2 had progressed to cirrhosis over the course of treatment, 18 were non-cirrhotic subjects with no change in fibrosis, and 3 were non-cirrhotic subjects with at least a 2-point reduction in fibrosis as measured by Ishak.

cancer = experiment: Cancer patients treated with anti-LOXL2 antibody AB0024: time to progression; type: in vivo, human; details: individual cancer patients
Description: Blood samples were obtained at Day 1 on which anti-LOXL2 treatment began (sample taken before anti-LOXL2 treatment); and on days 29 and 57 following the beginning of anti-LOXL2 treatment.

LOXL2 = target: T1, LOXL2 (Homo sapiens, UniProt Q9Y4K0); experiment: LOXL2 immunoassay of plasma/serum from patients receiving AB0024; type: in vivo; details: samples day 1 (pre-dose), 29 and 57
T1 construct: from tissue; host or cells: plasma and serum of human cancer patients
T1 sequence (Q9Y4K0 26-774): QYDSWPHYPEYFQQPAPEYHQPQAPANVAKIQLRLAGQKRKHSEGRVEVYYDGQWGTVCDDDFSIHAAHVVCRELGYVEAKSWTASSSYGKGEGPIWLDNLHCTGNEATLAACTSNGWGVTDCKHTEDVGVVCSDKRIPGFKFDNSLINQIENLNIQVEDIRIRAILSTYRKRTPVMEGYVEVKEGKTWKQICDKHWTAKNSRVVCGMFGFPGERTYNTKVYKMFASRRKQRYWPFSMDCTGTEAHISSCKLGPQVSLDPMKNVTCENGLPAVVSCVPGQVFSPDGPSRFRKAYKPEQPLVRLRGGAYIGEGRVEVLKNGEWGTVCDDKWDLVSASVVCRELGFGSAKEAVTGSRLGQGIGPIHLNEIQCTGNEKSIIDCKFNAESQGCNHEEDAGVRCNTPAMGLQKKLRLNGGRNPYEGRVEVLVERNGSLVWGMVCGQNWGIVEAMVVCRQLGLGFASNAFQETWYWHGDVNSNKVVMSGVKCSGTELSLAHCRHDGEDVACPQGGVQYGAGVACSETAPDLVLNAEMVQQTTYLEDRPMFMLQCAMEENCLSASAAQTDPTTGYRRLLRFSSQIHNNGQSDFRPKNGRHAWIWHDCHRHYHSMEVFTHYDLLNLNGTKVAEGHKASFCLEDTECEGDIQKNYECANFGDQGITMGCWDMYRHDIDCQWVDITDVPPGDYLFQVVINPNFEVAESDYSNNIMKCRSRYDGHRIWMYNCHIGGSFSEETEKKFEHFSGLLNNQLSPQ
Experimental: Standard single-spot uncoated electrode plates from MesoScale Discovery (MSD) (cat #L15XA-3) were coated overnight at 4° C. with a 30 μl volume of a solution of 3 μg/ml rabbit anti-human-LOXL2 polyclonal antibody formulated in phosphate-buffered saline (PBS). After coating, the wells of the plates were blocked by addition of a solution of 5% (w/v) Blocker A (MSD cat#R93AA-1) in PBS. After the blocking step, plates were washed 3 times in PBS containing 0.05% Tween-20 non-ionic detergent, using an automated plate washer. Human samples to be tested (serum or plasma) were prepared separately by diluting them 1:4 in PBS (1 part serum, 3 parts PBS). Samples were then added to each well of the plate. Samples were incubated with rotary shaking (300-600 rpm) for 2-3 hours at room temperature. After sample binding, the plates were again washed 3 times in PBS containing 0.05% Tween-20 detergent, using an automated plate washer. […]
1× Read Buffer T with Surfactants (MSD cat#R92TC-2) was added to each well, followed by immediate measurement of the plate on the MSD SectorImager 2400 instrument.
Test human samples were given a relative quantitative value of LOXL2 by comparison to the calibrator curve on the same assay plate, comprised of purified recombinant human LOXL2 protein (R&D Systems) added in known concentrations to human serum or plasma pooled from normal healthy donors. […]

[2] = Wk 240, Persistent Cirrhosis (n = 16), baseline 31%
[3] = baseline to Wk 240, Non-Cirrhotic No Δ (n = 18)
[4] = baseline to Wk 240, Persistent Cirrhosis (n = 16)
[5] = baseline to Wk 240, Reversed Cirrhosis (n = 42)

Molecule: CC(C)OC(=O)OCOP(=O)(CO[C@H](C)Cn1cnc2c(N)ncnc21)OCOC(=O)OC(C)C [TDF, tenofovir disoproxil fumarate]
- Subjects with improvement in, or no progression of, liver fibrosis ([1]; 348 CHB subjects, 300 mg, 240 weeks): 96.3%
- Chance of regression of cirrhosis at week 240 ([1]; baseline serum LOXL2 above 3000 pg/mL): 29%
- Chance of regression of cirrhosis at week 240 ([1]; baseline serum LOXL2 between 1500 and 3000 pg/mL): 70%
- Chance of regression of cirrhosis at week 240 ([1]; baseline serum LOXL2 less than 1500 pg/mL): 88%
- Patients with regression or improvement of Ishak fibrosis score ([1]; of the 60 patients with baseline cirrhosis, 240 weeks): 72%
- Subjects with regression of cirrhosis ([1]; of the 96 subjects with biopsy-proven cirrhosis at start, after 240 weeks): 74%
- Mean serum LOXL2 (serum LOXL2; Week 240, Ishak Stage 0-3, N 56 (baseline 510.2, N 18)): 746.8 pg/mL
- Mean serum LOXL2 (serum LOXL2; Week 240, Ishak Stage 4-6, N 25 (baseline 3298.2, N 63)): 753.5 pg/mL
- Mean serum LOXL2 (serum LOXL2; Week 240, all subjects N 81 (baseline 2678.6)): 748.9 pg/mL
- Subjects with serum LOXL2 >3000 pg/mL (serum LOXL2; Wk 240, Non-Cirrhotic No Δ (n = 18), baseline 6%): 0 (0%)
- Subjects with serum LOXL2 <LoD (serum LOXL2; Wk 240, Non-Cirrhotic No Δ (n = 18), baseline 22%): 8 (44%)
- Subjects with serum LOXL2 <LoQ (serum LOXL2; Wk 240, Non-Cirrhotic No Δ (n = 18), baseline 56%): 14 (78%)
- Subjects with serum LOXL2 <1000 pg/mL (serum LOXL2; Wk 240, Non-Cirrhotic No Δ (n = 18), baseline 72%): 15 (83%)
- Mean serum LOXL2 (serum LOXL2; Wk 240, Non-Cirrhotic No Δ (n = 18), baseline 798.4): 436.8 pg/mL
- Median serum LOXL2 (serum LOXL2; Wk 240, Non-Cirrhotic No Δ (n = 18), baseline <LOQ): <LOQ
- Subjects with serum LOXL2 <LoD (serum LOXL2; Wk 240, Persistent Cirrhosis (n = 16), baseline 6%): 2 (13%)
- Subjects with serum LOXL2 <LoQ (serum LOXL2; Wk 240, Persistent Cirrhosis (n = 16), baseline 13%): 8 (50%)
- Subjects with serum LOXL2 <1000 pg/mL (serum LOXL2; [2]): 14 (88%)
- Subjects with serum LOXL2 >3000 pg/mL (serum LOXL2; [2]): 0 (0%)
- Median serum LOXL2 (serum LOXL2; Wk 240, Persistent Cirrhosis (n = 16), baseline 1863): LOQ
- Mean serum LOXL2 (serum LOXL2; Wk 240, Persistent Cirrhosis (n = 16), baseline 9124.1): 603.8 pg/mL
- Subjects with serum LOXL2 <LoD (serum LOXL2; Wk 240, Reversed Cirrhosis (n = 42), baseline 2%): 13 (31%)
- Subjects with serum LOXL2 >3000 pg/mL (serum LOXL2; Wk 240, Reversed Cirrhosis (n = 42), baseline 5%): 3 (7%)
- Subjects with serum LOXL2 <LoQ (serum LOXL2; Wk 240, Reversed Cirrhosis (n = 42), baseline 10%): 29 (69%)
- Subjects with serum LOXL2 <1000 pg/mL (serum LOXL2; Wk 240, Reversed Cirrhosis (n = 42), baseline 48%): 35 (83%)
- Median serum LOXL2 (serum LOXL2; Wk 240, Reversed Cirrhosis (n = 42), baseline 1073): <LOQ
- Mean serum LOXL2 (serum LOXL2; Wk 240, Reversed Cirrhosis (n = 42), baseline 1355.0): 922.6 pg/mL
- Subjects with Decrease in serum LOXL2 (serum LOXL2; [3]): 9 (50%)
- Subjects with Increase in serum LOXL2 (serum LOXL2; [3]): 2 (11%)
- Subjects with Decrease in serum LOXL2 (serum LOXL2; [4]): 14 (88%)
- Subjects with Increase in serum LOXL2 (serum LOXL2; [4]): 0 (0%)
- Subjects with Decrease in serum LOXL2 (serum LOXL2; [5]): 37 (88%)
- Subjects with Increase in serum LOXL2 (serum LOXL2; [5]): 5 (12%)
- Cirrhotic subjects with a reduction in LOXL2 levels (serum LOXL2; baseline to week 240): 88%
- Subjects with a reduction in serum LOXL2 levels (serum LOXL2; of the 81 subjects, baseline to week 240): 79%
- Subjects with no change in LOXL2 levels (serum LOXL2; of the 81 subjects, each with baseline below limit of quantitation): 11%

B1: AB0024: humanized anti-LOXL2 monoclonal antibody; inhibits LOXL2 enzymatic activity, binds epitope within SRCR3-4; VH SEQ ID NO:8, VL SEQ ID NO:9 (antibody, V domains shown)
VH: QVQLVQSGAEVKKPGASVKVSCKASGYAFTYYLIEWVRQAPGQGLEWIGVINPGSGGTNYNEKFKGRATITADKSTSTAYMELSSLRSEDTAVYFCARNWMNFDYWGQGTTVTVSS
VL: DIVMTQTPLSLSVTPGQPASISCRSSKSLLHSNGNTYLYWFLQKPGQSPQFLIYRMSNLASGVPDRFSGSGSGTDFTLKISRVEAEDVGVYYCMQHLEYPYTFGGGTKVEIK
- Time to progression (cancer; dose level 1 mpk): 44 days and Stable and 57 days
- Time to progression (cancer; dose level 3 mpk): 38 days and 56 days and 42 days
- Time to progression (cancer; dose level 10 mpk): 57 days and 30 days and 51 days
- Effect of antibody administration on LOXL2 signal in plasma/serum (LOXL2): did not clear or mask the LOXL2 signal
